From patent US20180170904A1, “PYRIDIN-3-YL ACETIC ACID DERIVATIVES AS INHIBITORS OF HUMAN IMMUNODEFICIENCY VIRUS REPLICATION” (priority 2015, published 2018)

Test system: NL-RLuc virus (recombinant NL4-3 proviral clone with Renilla Luciferase gene)
Assay: Inhibition of HIV replication (NL-RLuc reporter virus in MT-2 cells)
Format: cell-based
Settings: MT-2 cells infected with NL-RLuc virus, 5 days of incubation, luciferase readout; read-out: Activity
Source text: Inhibition of HIV replication: A recombinant NL-RLuc proviral clone was constructed in which a section of the nef gene from NL4-3 was replaced with the Renilla Luciferase gene. This virus is fully infectious and can undergo multiple cycles of replication in cell culture. In addition, the luciferous reporter provides a simple and easy method for quantitating the extent of virus growth and consequently, the antiviral activity of test compounds. The plasmid pNLRLuc contains the proviral NL-Rluc DNA cloned into pUC18 at the PvuII site. The NL-RLuc virus was prepared by transfection of 293T cells with the plasmid pNLRLuc. Transfections were performed using the LipofectAMINE PLUS kit from Invitrogen (Carlsbad, Calif.) according to the manufacturer and the virus generated was titered in MT-2 cells. For susceptibility analyses, the titrated virus was used to infect MT-2 cells in the presence of compound, and after 5 days of incubation, cells were processed and quantitated for virus growth by the amount of expressed luciferase. Assay media was RPMI 1640 supplemented with 10% heat inactivated fetal bovine serum (FBS), 100 units/ml penicillin G/100 units/ml streptomycin, 10 mM HEPES buffer pH 7.55 and 2 mM L-glutamine. The results from at least 2 experiments were used to calculate the EC50 values. Luciferase was quantitated using the Dual Luciferase kit from Promega (Madison, Wis.). Susceptibility of viruses to compounds was determined by incubation in the presence of serial dilutions of the compound. The 50% effective concentration (EC50) was calculated by using the exponential form of the median effect equation where (Fa)=1/[1+(ED50/drug conc.)^m] (Johnson V A, Byington R T. Infectivity Assay. In Techniques in HIV Research. ed. Aldovini A, Walker B D. 71-76. New York: Stockton Press.1990). Activity equal to A refers to a compound having an EC50≤100 nM, while B and C denote compounds having an EC50 between 100 nM and 1 uM (B) or >1 uM (C).

**Q.** For “(S)-2-(tert-Butoxy)-2-(4-(4,4-dimethylpiperidin-1-yl)-5-(4-(1-(4-fluorobenzyl)-1H-tetrazol-5-yl)phenyl)-2,6-dimethylpyridin-3-yl)acetic acid and/or (S)-2-(tert-Butoxy)-2-(4-(4,4-dimethylpiperidin-1-yl)-5-(4-(2-(4-fluorobenzyl)-2H-tetrazol-5-yl)phenyl)-2,6-dimethylpyridin-3-yl)acetic acid [Example 86]”, which EC50 is on record?
**A.** < 0.1 µM

Same assay, conditions: Renilla, NL43, 120 h, read-out: Activity

**Q.** For Cc1nc(C)c([C@H](OC(C)(C)C)C(=O)O)c(N2CCC(C)(C)CC2)c1-c1cc(F)c(F)c(F)c1 [Example 33, (S)-2-(tert-Butoxy)-2-(4-(4,4-dimethylpiperidin-1-yl)-2,6-dimethyl-5-(3,4,5-trifluorophenyl)pyridin-3-yl)acetic acid], which EC50 is on record?
**A.** < 0.1 µM

**Q.** How did the EC50 turn out when Cc1nc(C)c([C@H](OC(C)(C)C)C(=O)O)c(N2CCC(C)(C)CC2)c1-c1ccc(CCCO)cc1 [Example 31, (S)-2-(tert-Butoxy)-2-(4-(4,4-dimethylpiperidin-1-yl)-5-(4-(3-hydroxypropyl)phenyl)-2,6-dimethylpyridin-3-yl)acetic acid] was run?
**A.** < 0.1 µM

**Q.** Which EC50 does the source give for Cc1nc(C)c([C@H](OC(C)(C)C)C(=O)O)c(N2CCC(C)(C)CC2)c1-c1ccc(-c2nnn[nH]2)cc1 [Example 46, (S)-2-(5-(4-(1H-Tetrazol-5-yl)phenyl)-4-(4,4-dimethylpiperidin-1-yl)-2,6-dimethylpyridin-3-yl)-2-(tert-butoxy)acetic acid] here?
**A.** > 1 µM

**Q.** For Cc1nc(C)c([C@H](OC(C)(C)C)C(=O)O)c(N2CCC(C)(C)CC2)c1-c1ccc(C2(C#N)CC2)cc1 [Example 27, (S)-2-(tert-Butoxy)-2-(5-(4-(1-cyanocyclopropyl)phenyl)-4-(4,4-dimethylpiperidin-1-yl)-2,6-dimethylpyridin-3-yl)acetic acid], which EC50 is on record?
**A.** < 0.1 µM

**Q.** With Cc1nc(C)c([C@H](OC(C)(C)C)C(=O)O)c(N2CCC(C)(C)CC2)c1-c1ccc(-c2cccc3ccccc23)cc1 [Example 18, (S)-2-(tert-Butoxy)-2-(4-(4,4-dimethylpiperidin-1-yl)-2,6-dimethyl-5-(4-(naphthalen-1-yl)phenyl)pyridin-3-yl)acetic acid] as the compound, how does the EC50 read?
**A.** < 0.1 µM

**Q.** Cc1nc(C)c([C@H](OC(C)(C)C)C(=O)O)c(N2CCC(C)(C)CC2)c1-c1ccc(C(C)(C)C#N)cc1 [Example 36, (S)-2-(tert-Butoxy)-2-(5-(4-(2-cyanopropan-2-yl)phenyl)-4-(4,4-dimethylpiperidin-1-yl)-2,6-dimethylpyridin-3-yl)acetic acid] was tested. Which EC50 did it give?
**A.** < 0.1 µM

**Q.** Which EC50 does the source give for CCOc1cc(F)cc(F)c1CNC(=O)c1ccc(-c2c(C)nc(C)c([C@H](OC(C)(C)C)C(=O)O)c2N2CCC(C)(C)CC2)cc1 [Example 67, (S)-2-(tert-Butoxy)-2-(4-(4,4-dimethylpiperidin-1-yl)-5-(4-((2-ethoxy-4,6-difluorobenzyl)carbamoyl)phenyl)-2,6-dimethylpyridin-3-yl)acetic acid] here?
**A.** < 0.1 µM

**Q.** Which EC50 does the source give for CCC1(C)CCN(c2c(-c3ccc(C(=O)NCc4ccccc4)cc3)c(C)nc(C)c2[C@H](OC(C)(C)C)C(=O)O)CC1 [Example 56, (S)-2-(5-(4-(Benzylcarbamoyl)phenyl)-4-(4-ethyl-4-methylpiperidin-1-yl)-2,6-dimethylpyridin-3-yl)-2-(tert-butoxy)acetic acid] here?
**A.** < 0.1 µM

**Q.** Which EC50 does the source give for Cc1cc(CNC(=O)c2ccc(-c3c(C)nc(C)c([C@H](OC(C)(C)C)C(=O)O)c3N3CCC(C)(C)CC3)cc2)ccc1F [Example 1, (S)-2-(tert-Butoxy)-2-(4-(4,4-dimethylpiperidin-1-yl)-5-(4-((4-fluoro-3-methylbenzyl)carbamoyl)phenyl)-2,6-dimethylpyridin-3-yl)acetic acid] here?
**A.** < 0.1 µM

**Q.** With Cc1nc(C)c([C@H](OC(C)(C)C)C(=O)O)c(N2CCC(C)(C)CC2)c1-c1ccc(/S(CCc2ccc(F)cc2)=N/C(=O)OC(C)(C)C)cc1 (stereo partly drawn) [Example 80, (2S)-2-(tert-Butoxy)-2-(5-(4-((E)-N-(tert-butoxycarbonyl)-S-(4-fluorophenethyl)sulfinimidoyl)phenyl)-4-(4,4-dimethylpiperidin-1-yl)-2,6-dimethylpyridin-3-yl)acetic acid] as the compound, how does the EC50 read?
**A.** < 0.1 µM

**Q.** For Cc1nc(C)c([C@H](OC(C)(C)C)C(=O)O)c(N2CCC(C)(C)CC2)c1-c1ccc(C(=O)NCc2ccccn2)cc1 [Example 66, (S)-2-(tert-Butoxy)-2-(4-(4,4-dimethylpiperidin-1-yl)-2,6-dimethyl-5-(4-((pyridin-2-ylmethyl)carbamoyl)phenyl)pyridin-3-yl)acetic acid], which EC50 is on record?
**A.** < 0.1 µM

**Q.** How did the EC50 turn out when Cc1nc(C)c([C@H](OC(C)(C)C)C(=O)O)c(N2CCC(C)(C)CC2)c1-c1ccc(C=Cc2ccc(F)cc2)cc1 [Example 84, (S)-2-(tert-Butoxy)-2-(4-(4,4-dimethylpiperidin-1-yl)-5-(4-(4-fluorostyryl)phenyl)-2,6-dimethylpyridin-3-yl)acetic acid] was run?
**A.** 0.1 to 1 µM

**Q.** For Cc1nc(C)c([C@H](OC(C)(C)C)C(=O)O)c(N2CCC(C)(C)CC2)c1-c1ccc(N)cc1 [Example 70, (S)-2-(5-(4-Aminophenyl)-4-(4,4-dimethylpiperidin-1-yl)-2,6-dimethylpyridin-3-yl)-2-(tert-butoxy)acetic acid], which EC50 is on record?
**A.** 0.1 to 1 µM

**Q.** For Cc1nc(C)c([C@H](OC(C)(C)C)C(=O)O)c(N2CCC(C)(C)CC2)c1-c1ccc(F)c(F)c1 [Example 41, (S)-2-(tert-Butoxy)-2-(5-(3,4-difluorophenyl)-4-(4,4-dimethylpiperidin-1-yl)-2,6-dimethylpyridin-3-yl)acetic acid], which EC50 is on record?
**A.** < 0.1 µM

**Q.** With COc1ccc(-c2ccc(-c3c(C)nc(C)c([C@H](OC(C)(C)C)C(=O)O)c3N3CCC(C)(C)CC3)cc2)cc1 [Example 16, (S)-2-(tert-Butoxy)-2-(4-(4,4-dimethylpiperidin-1-yl)-5-(4′-methoxy-[1,1′-biphenyl]-4-yl)-2,6-dimethylpyridin-3-yl)acetic acid] as the compound, how does the EC50 read?
**A.** < 0.1 µM

**Q.** Cc1nc(C)c([C@H](OC(C)(C)C)C(=O)O)c(N2CCC(C)(C)CC2)c1-c1ccc(C=O)cc1 [Example 83, (S)-2-(tert-Butoxy)-2-(4-(4,4-dimethylpiperidin-1-yl)-5-(4-formylphenyl)-2,6-dimethylpyridin-3-yl)acetic acid] was tested. Which EC50 did it give?
**A.** < 0.1 µM

**Q.** Cc1ccc(-c2c(C)nc(C)c([C@H](OC(C)(C)C)C(=O)O)c2N2CCC(C)(C)CC2)cc1F [Example 19, (S)-2-(tert-Butoxy)-2-(4-(4,4-dimethylpiperidin-1-yl)-5-(3-fluoro-4-methylphenyl)-2,6-dimethylpyridin-3-yl)acetic acid] was tested. Which EC50 did it give?
**A.** < 0.1 µM

**Q.** Which EC50 does the source give for Cc1nc(C)c([C@H](OC(C)(C)C)C(=O)O)c(N2CCC(C)(C)CC2)c1-c1ccc(C(=O)O)c(C(=O)NCc2ccccc2)c1 [Example 45, (S)-2-(benzylcarbamoyl)-4-(5-(tert-butoxy(carboxy)methyl)-4-(4,4-dimethylpiperidin-1-yl)-2,6-dimethylpyridin-3-yl)benzoic acid] here?
**A.** 0.1 to 1 µM

**Q.** Which EC50 does the source give for Cc1nc(C)c([C@H](OC(C)(C)C)C(=O)O)c(N2CCC(C)(C)CC2)c1-c1ccc(-c2ncc(Cc3ccc(F)cc3)s2)cc1 [Example 3, (S)-2-(tert-Butoxy)-2-(4-(4,4-dimethylpiperidin-1-yl)-5-(4-(5-(4-fluorobenzyl)thiazol-2-yl)phenyl)-2,6-dimethylpyridin-3-yl)acetic acid] here?
**A.** < 0.1 µM

Same assay, conditions: Renilla, NL43, 120 h, read-out: EC50 μM

**Q.** Which EC50 does the source give for Cc1cc(CNC(=O)c2ccc(-c3c(C)nc(C)c([C@H](OC(C)(C)C)C(=O)O)c3N3CCC(C)(C)CC3)cc2)ccc1F [Example 1, (S)-2-(tert-Butoxy)-2-(4-(4,4-dimethylpiperidin-1-yl)-5-(4-((4-fluoro-3-methylbenzyl)carbamoyl)phenyl)-2,6-dimethylpyridin-3-yl)acetic acid] here?
**A.** 0.007 µM

**Q.** How did the EC50 turn out when Cc1nc(C)c([C@H](OC(C)(C)C)C(=O)O)c(N2CCC(C)(C)CC2)c1-c1ccc(C=Cc2ccc(F)cc2)cc1 [Example 84, (S)-2-(tert-Butoxy)-2-(4-(4,4-dimethylpiperidin-1-yl)-5-(4-(4-fluorostyryl)phenyl)-2,6-dimethylpyridin-3-yl)acetic acid] was run?
**A.** 0.126 µM
